The target of one test is T1, human GIP receptor (Homo sapiens, UniProt P48546).
T1 construct: expressed in transfected cells; host or cells: BHK (baby hamster kidney) cells, membrane preparation
T1 sequence (P48546 22-466): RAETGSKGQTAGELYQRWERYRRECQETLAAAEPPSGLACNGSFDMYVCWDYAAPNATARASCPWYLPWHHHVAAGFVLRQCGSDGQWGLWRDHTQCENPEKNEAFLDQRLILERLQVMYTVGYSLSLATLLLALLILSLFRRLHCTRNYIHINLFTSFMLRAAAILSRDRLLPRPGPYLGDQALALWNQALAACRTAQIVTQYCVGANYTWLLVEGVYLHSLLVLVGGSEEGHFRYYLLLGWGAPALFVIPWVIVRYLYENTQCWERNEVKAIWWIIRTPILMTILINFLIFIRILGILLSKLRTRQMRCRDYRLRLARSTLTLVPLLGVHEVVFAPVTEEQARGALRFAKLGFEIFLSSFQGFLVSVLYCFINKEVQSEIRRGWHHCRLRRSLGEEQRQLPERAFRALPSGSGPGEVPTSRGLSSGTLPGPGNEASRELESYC
In words: GIP Binding Assay. Conditions: membranes of BHK cells transfected with human GIP receptor, 125I-GIP, SPA; read-out: GIP Bd Assay IC50. Put shortly: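 Membranes from BHK cells transfected with human GIP receptor; competition binding in HEPES pH 7.5 buffer with Ca2+/Mg2+, compounds added in DMSO, WGA SPA beads. Incubated 3.5 h shaking, settled 8-48 h, then scintillation counted; non-specific binding defined with 500 nM GIP.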

For the next test, the target named is T2, human glucagon receptor (Homo sapiens, UniProt P47871).
T2 construct: expressed in transfected cells; host or cells: BHK (baby hamster kidney) cells, membrane preparation
T2 sequence (P47871 26-477): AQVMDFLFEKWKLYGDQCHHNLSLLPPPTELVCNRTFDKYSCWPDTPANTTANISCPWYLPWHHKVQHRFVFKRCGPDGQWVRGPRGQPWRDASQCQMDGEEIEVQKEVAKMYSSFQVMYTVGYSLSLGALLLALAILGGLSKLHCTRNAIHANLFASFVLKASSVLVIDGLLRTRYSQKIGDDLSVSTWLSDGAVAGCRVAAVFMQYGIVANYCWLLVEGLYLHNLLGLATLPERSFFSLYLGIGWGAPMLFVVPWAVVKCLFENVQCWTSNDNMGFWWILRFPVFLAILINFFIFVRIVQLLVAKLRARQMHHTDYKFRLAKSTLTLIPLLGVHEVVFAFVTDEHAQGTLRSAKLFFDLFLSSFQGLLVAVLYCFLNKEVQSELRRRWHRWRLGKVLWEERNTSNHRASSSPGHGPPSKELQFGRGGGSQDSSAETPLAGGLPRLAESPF
In words: Glucagon Binding Assay (II). Conditions: membranes of BHK cells transfected with human glucagon receptor, 125I-glucagon, SPA; read-out: Glu Bd Assay (II) IC50. Put shortly:
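Membranes from BHK cells transfected with the human glucagon receptor were incubated with test compound (in DMSO) in HEPES buffer pH 7.5 with Ca2+/Mg2+ and WGA beads for 4 h, then settled 8–48 h before scintillation counting. Non-specific binding was defined with 500 nM glucagon.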

`CC(C)(C)c1cccc(NC(=O)N(Cc2ccc(C(=O)NC[C@@H](O)C(=O)O)cc2)c2ccc(C3CCCCC3)cc2)c1` [Example 38, (R)-3-{4-[3-(3-tert-Butylphenyl)-1-(4-cyclohexylphenyl)ureidomethyl]benzoylamino)-2-hydroxypropionic Acid]: the IC50 turned out to be 221 nM on human GIP receptor and 33 nM on human glucagon receptor.

For `CC(C)(C)c1ccc(N(Cc2ccc(C(=O)NC[C@@H](O)C(=O)O)cc2)C(=O)Nc2ccc(F)c(F)c2)cc1` [Example 46, (R)-3-{4-[1-(4-tert-Butylphenyl)-3-(3,4-difluorophenyl)ureidomethyl]benzoylamino}-2-hydroxypropionic acid], the IC50 was 1170 nM on human GIP receptor and 507 nM on human glucagon receptor.

Take `O=C(NC[C@@H](O)C(=O)O)c1ccc(CN(C(=O)Nc2cc(Br)cc(C(F)(F)F)c2)c2ccc(C3CCCCC3)cc2)cc1` [Example 12, (R)-3-{4-[3-(3-Bromo-5-trifluoromethylphenyl)-1-(4-cyclohexylphenyl)ureidomethyl]benzoylamino}-2-hydroxypropionic acid]: the IC50 on human GIP receptor is 204 nM; on human glucagon receptor it was 10 nM.

`CC(NC(=O)N(Cc1ccc(C(=O)NC[C@@H](O)C(=O)O)cc1)c1ccc(C2CCCCC2)cc1)c1ccc(Br)cc1` (mixture of isomers) [Example 54, 3-{4-[3-[1(RS)-(4-Bromophenyl)ethyl]-1-(4-cyclohexylphenyl)ureidomethyl]benzoylamino}-2(R)-hydroxypropionic acid]: the IC50 is more than 3000 nM at human GIP receptor and 390 nM at human glucagon receptor.

For the compound `Cc1cc(C)cc(NC(=O)N(Cc2ccc(C(=O)NC[C@@H](O)C(=O)O)cc2)[C@H]2CC[C@H](C(C)(C)C)CC2)c1` [Example 26, Trans-(R)-3-{4-[-3-(3,5-bis(methyl)phenyl)-1-(4-tert-butylcyclohexyl)ureidomethyl]benzoylamino}-2-hydroxypropionic Acid], the IC50 at human GIP receptor amounted to 703 nM; at human glucagon receptor it was 92 nM.

With `O=C(NC[C@@H](O)C(=O)O)c1ccc(CN(C(=O)Cc2ccc3ccccc3c2)c2ccc(C3CCCCC3)cc2)cc1` [Example 71, (R)-3-(4-{[(4-Cyclohexylphenyl)-(2-naphthylacetyl)amino]methyl}benzoylamino)-2-hydroxypropionic acid], the figures for the IC50 at human GIP receptor and at human glucagon receptor were more than 3000 nM and 886 nM, respectively.

For `O=C(NC[C@@H](O)C(=O)O)c1ccc(CN(C(=O)NCc2ccccc2-c2ccccc2)c2ccc(C3CCCCC3)cc2)cc1` [Example 36, 3-{4-[3-Biphenyl-2-ylmethyl-1-(4-cyclohexylphenyl)ureidomethyl]benzoylamino}-2(R)-hydroxypropionic acid], the half-maximal inhibitory concentration (IC50) at human GIP receptor was determined as 284 nM; on human glucagon receptor, 14 nM.

For the compound `O=C(NC[C@@H](O)C(=O)O)c1ccc(CN(C(=O)Nc2ccc(Cl)c(C(F)(F)F)c2)c2ccc(C3CCCCC3)cc2)cc1` [Example 49, (R)-3-{4-[3-(4-Chloro-3-trifluoromethylphenyl)-1-(4-cyclohexylphenyl)ureidomethyl]benzoylamino}-2-hydroxypropionic acid], the values for the half-maximal inhibitory concentration (IC50) on human GIP receptor and on human glucagon receptor were 160 nM and 25 nM, respectively.

Take `CO[C@H](CNC(=O)c1ccc(CN(C(=O)Nc2cc(Cl)cc(Cl)c2)c2ccc(C3=CCCCC3)cc2)cc1)C(=O)O` [Example 31, 3-{4-[1-(4-Cyclohex-1-enylphenyl)-3-(3,5-dichlorophenyl)ureidomethyl]benzoylamino}-2(R)-methoxypropionic Acid]: the values for the IC50 at human GIP receptor and on human glucagon receptor were not below 3000 nM and 917 nM, respectively.

Take `C[C@H](NC(=O)N(Cc1ccc(C(=O)NC[C@@H](O)C(=O)O)cc1)c1ccc(C2CCCCC2)cc1)c1ccc(Cl)cc1` [Example 35, 3-{4-[3-[1(S)-(4-Chlorophenyl)ethyl]-1-(4-cyclohexylphenyl)ureidomethyl]benzoylamino}-2(R)-hydroxypropionic Acid]: the results for the IC50 at human GIP receptor and on human glucagon receptor were 432 nM and 40 nM, respectively.

Usually IC50 stands for the concentration that gives 50% inhibition.

Values taken from patent US6953812B2, “Glucagon antagonists/inverse agonists” (Novo Nordisk, Inc., priority 2000, dated 2005).
